Values of other authors in patent publication US5891469A, “Solid Coprecipitates for enhanced bioavailability of lipophilic substances” (Pharmos Corporation, priority 1997, dated 1999).

How the values were obtained:
[1] = for solubility in aqueous solutions: cannabinoids, depending upon the conditions (Garret and Hunt 1974)
[2] = like other lipophilic drugs

For `COC1=C(OC)C(=O)C(C/C=C(\C)CC/C=C(\C)CC/C=C(\C)CC/C=C(\C)CC/C=C(\C)CC/C=C(\C)CC/C=C(\C)CC/C=C(\C)CC/C=C(\C)CCC=C(C)C)=C(C)C1=O` [Coenzyme Q10, 2,3-dimethoxy-5-methyl-6-decaprenyl-1,4-benzoquinone], the “solubility in water (in words)” value ([1]; due to long side chain of 10 isoprenoid units) is listed as “practically insoluble in water”.
For `CCCCCCC(C)(C)c1cc(O)c2c(c1)OC(C)(C)[C@H]1CC=C(CO)C[C@H]21` [Dexanabinol, (+)-(3S, 4S)-7-hydroxy-Δ^6-tetra hydrocannabinol-1,1-dimetylheptyl], the solubility in water ([1]; practically insoluble in water) is given as “less than 50 μg/ml” and the oral bioavailability [2] is given as “poor oral bioavailability”.
In the case of `CCCCCc1cc(O)c2c(c1)OC(C)(C)[C@@H]1CCC(C)=C[C@@H]21` [Δ^1 -tetrahydrocannabinol (Δ^1 -THC), Δ^1 -tetrahydrocannabinol], the “solubility in aqueous solutions” value [1] is listed as “a few micrograms/ml or less”.
For `CCCCCc1cc(O)c2c(c1)OC(C)(C)[C@@H]1CCC(C)=C[C@@H]21` [tetrahydrocannabinol (THC), tetrahydrocannabinol], the maximal plasma levels (oral dosing of 20 mg THC in a sesame oil formulation (Wall et al. 1983)) is listed as “around 10 ng/ml” and the “human bioavailability following oral ingestion, mean estimates” value (oral, depending on the vehicle used) is listed as 6 to 12%.
In the case of `CCCCCc1cc(O)c2c(c1)OC(C)(C)[C@@H]1CC=C(C)C[C@@H]21` [Δ^6 -tetrahydrocannabinol (Δ^6 -THC), Δ^6 -tetrahydrocannabinol], the “solubility in aqueous solutions” value [1] is given as “a few micrograms/ml or less”.
In the case of `CCCCCc1cc(O)c2c(c1)OC(C)(C)c1ccc(C)cc1-2` [cannabinol], the “solubility in aqueous solutions” value [1] is listed as “a few micrograms/ml or less”.
For `C=C(C)[C@@H]1CCC(C)=C[C@H]1c1c(O)cc(CCCCC)cc1O` [cannabidiol], the “solubility in aqueous solutions” value [1] is listed as “a few micrograms/ml or less”.
